Data taken from patent US20070203025A1, “Defoliant” (priority 2006, published 2007).

How the values were obtained:
[1] = system: Cotton plants of the cultivar "Carmen"; test: Regrowth of cotton plants, by weighing the newly formed leaf material; assay type: in vivo; conditions: dose 35 g of a.i./ha, 1 l/ha Actirob B added, weight of newly formed leaf material
Description: (§1) A water application rate of 300 l/ha was initially charged. The components herbicide and adjuvant were then added with stirring at the application rates and in the manner stated in table 1, such that a homogeneous spray liquor was formed. Here, the active ingredients were employed as suspension concentrates. The adjuvant used was ®Actirob B (Novance).
(§2) Cotton seeds of the cultivar “Carmen” were sown at a depth of 1 cm and cultivated in a climatized chamber (16 h of light, temperature during the day: 26° C., at night: 20° C.) until they had reached the 8-10 leaf stage.
The plants were treated on a laboratory spray track with spray liquors of thidiazuron and thidiazuron with combination partners. The water application rate for the spray application was 300 l/ha. After the treatment, the plants were returned to the climatized chamber.
4 weeks after the application, the regrowth of the plants was assessed by weighing the newly formed leaf material.

[2] = system: Cotton plants of the cultivar "Carmen"; test: Leaf drop effect (defoliation) on cotton plants after spray application; assay type: in vivo; conditions: dose 35 g of a.i./ha, 1 l/ha Actirob B added, scale 0-100%
Description: as §1, §2
The plants were treated on a laboratory spray track with spray liquors of thidiazuron and thidiazuron with combination partners. The water application rate for the spray application was 300 l/ha. […]
2 weeks after the application, the leaf drop effect was evaluated according to a scale from 0 to 100%: • 0% =no noticeable effect compared to untreated plants • 100% =all leaves have dropped.
One week after the application, the leaf drop effect was evaluated according to a scale from 0 to 100%: • 0% =no noticeable effect compared to untreated plants • 100% =all leaves have dropped.
One week after the application, the leaf drop effect was evaluated according to a scale from 0 to 100%: • 0%=no noticeable effect compared to untreated plants • 100%=all leaves have dropped.

## O=C(Nc1ccccc1)Nc1cnns1 [TDZ, thidiazuron]
[1]; Table 1
  Regrowth [g] 4 weeks after application: 3.3 g
[1]; Table 3
  Regrowth [g] 4 weeks after application: 2.4 g
[2]; Table 1, 100% = all leaves have dropped
  Leaf drop [%] 2 weeks after application: 35%
[2]; Table 3
  Leaf drop [%] 2 weeks after application: 91%
